Reference: ChEMBL document CHEMBL4229407, “Optimization and in vivo evaluation of pyrazolopyridines as a potent and selective PI3Kδ inhibitor” (Bioorg Med Chem, 2018)

Assays:
[1] = target: PI3-kinase p110-delta/p85-alpha (Homo sapiens, UniProt O00329); test: Inhibition of recombinant human full length N-terminal His6-tagged PI3K p110delta/p85alpha expressed in baculovirus infected Sf21 cells using PIP2 as substrate after 35 to 40 mins by HTRF assay
[2] = organism: Homo sapiens; test: Selectivity ratio of IC50 for recombinant human full length N-terminal His6-tagged PI3K p110alpha/p85alpha expressed in baculovirus infected Sf21 cells to IC50 for recombinant human full length N-terminal His6-tagged PI3K p110delta/p85alpha expressed in baculovirus infected Sf21 cells
[3] = organism: Homo sapiens; test: Selectivity ratio of IC50 for recombinant human full length N-terminal His6-tagged PI3K p110beta/p85alpha expressed in baculovirus infected Sf21 cells to IC50 for recombinant human full length N-terminal His6-tagged PI3K p110delta/p85alpha expressed in baculovirus infected Sf21 cells
[4] = Intrinsic clearance in CD-1 mouse liver microsomes at 0.2 uM up to 45 mins in presence of NADPH by LC-MS/MS analysis; format: ADME, microsome; conditions: read-out: CLH
[5] = organism: Homo sapiens; test: Selectivity ratio of IC50 for recombinant human full length N-terminal His6-tagged PI3K p120gamma expressed in baculovirus infected Sf21 cells to IC50 for recombinant human full length N-terminal His6-tagged PI3K p110delta/p85alpha expressed in baculovirus infected Sf21 cells
[6] = tested on: Mus musculus; test: In vivo inhibition of PI3Kdelta in Balb/c mouse assessed as reduction in trinitrophenylated aminoethylcarboxymethyl-Ficoll-induced antibody production in plasma at 2 mg/kg, po administered twice daily measured on day 4 by ELISA relative to control; format: functional; conditions: 96 h
[7] = tested on: Mus musculus; test: In vivo inhibition of PI3Kdelta in Balb/c mouse assessed as reduction in trinitrophenylated aminoethylcarboxymethyl-Ficoll-induced antibody production in plasma at 1 mg/kg, po administered twice daily measured on day 4 by ELISA relative to control; format: functional; conditions: 96 h
[8] = Metabolic stability in CD-1 mouse liver microsomes at 0.2 uM up to 45 mins in presence of NADPH by LC-MS/MS analysis; format: ADME, microsome; conditions: 0.75 h
[9] = Cmax in Balb/c mouse at 1 mg/kg, iv or 3 mg/kg, po by LC-MS/MS analysis; format: ADME, organism-based; conditions: in vivo
[10] = target: Cytochrome P450 3A4 (Homo sapiens, UniProt P08684); test: Inhibition of CYP3A4 in human liver microsomes at 5 uM using midazolam as substrate after 20 mins in presence of NADPH by LC-MS/MS analysis; format: ADME
Sequence of Cytochrome P450 3A4 (P08684 whole entry): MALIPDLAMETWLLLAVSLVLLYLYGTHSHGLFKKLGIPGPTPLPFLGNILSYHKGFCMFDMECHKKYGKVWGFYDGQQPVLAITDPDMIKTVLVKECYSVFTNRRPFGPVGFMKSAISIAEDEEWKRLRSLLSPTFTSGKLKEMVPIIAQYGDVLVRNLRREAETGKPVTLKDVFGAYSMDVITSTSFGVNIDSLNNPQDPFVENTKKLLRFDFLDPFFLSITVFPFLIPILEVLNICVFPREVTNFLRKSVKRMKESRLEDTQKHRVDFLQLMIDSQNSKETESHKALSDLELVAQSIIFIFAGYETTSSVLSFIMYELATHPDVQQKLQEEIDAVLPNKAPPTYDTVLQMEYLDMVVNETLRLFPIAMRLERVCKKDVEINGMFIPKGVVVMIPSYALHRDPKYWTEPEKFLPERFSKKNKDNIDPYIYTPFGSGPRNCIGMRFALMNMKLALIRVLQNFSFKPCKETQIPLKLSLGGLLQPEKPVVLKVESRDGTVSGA

[11] = target: T1, Cytochrome P450 2C8 (Homo sapiens, UniProt P10632); test: Inhibition of CYP2C8 in human liver microsomes at 5 uM using amodiaquine as substrate after 20 mins in presence of NADPH by LC-MS/MS analysis; format: ADME
T1 sequence (P10632 whole entry): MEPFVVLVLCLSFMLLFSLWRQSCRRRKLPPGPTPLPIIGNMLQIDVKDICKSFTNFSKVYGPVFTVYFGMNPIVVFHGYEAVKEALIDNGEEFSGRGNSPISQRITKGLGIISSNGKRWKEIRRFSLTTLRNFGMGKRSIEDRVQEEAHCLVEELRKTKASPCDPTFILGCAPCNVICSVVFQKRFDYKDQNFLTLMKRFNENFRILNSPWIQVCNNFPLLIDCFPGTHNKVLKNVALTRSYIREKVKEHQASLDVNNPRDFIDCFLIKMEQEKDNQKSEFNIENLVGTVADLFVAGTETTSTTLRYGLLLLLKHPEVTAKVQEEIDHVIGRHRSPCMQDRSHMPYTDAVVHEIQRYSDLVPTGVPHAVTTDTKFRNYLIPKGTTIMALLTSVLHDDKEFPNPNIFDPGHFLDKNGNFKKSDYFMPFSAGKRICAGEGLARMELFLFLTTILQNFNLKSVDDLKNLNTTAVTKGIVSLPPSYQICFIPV

[12] = Tmax in Balb/c mouse at 1 mg/kg, iv or 3 mg/kg, po by LC-MS/MS analysis; format: ADME, organism-based; conditions: in vivo
[13] = Volume of distribution at steady state in Balb/c mouse at 1 mg/kg, iv or 3 mg/kg, po by LC-MS/MS analysis; format: ADME, organism-based; conditions: in vivo, read-out: Vdss
[14] = tested on: Mus musculus; test: In vivo inhibition of PI3Kdelta in Balb/c mouse assessed as reduction in trinitrophenylated aminoethylcarboxymethyl-Ficoll-induced antibody production in plasma at 0.5 mg/kg, po administered twice daily measured on day 4 by ELISA relative to control; format: functional; conditions: 96 h
[15] = Permeability of the compound at 50 uM after 2 hrs by HPLC based PAMPA; format: ADME; conditions: read-out: permeability
[16] = target: T2, Cytochrome P450 1A2 (Homo sapiens, UniProt P05177); test: Inhibition of CYP1A2 in human liver microsomes at 5 uM using phenacetin as substrate after 20 mins in presence of NADPH by LC-MS/MS analysis; format: ADME
T2 sequence (P05177 whole entry): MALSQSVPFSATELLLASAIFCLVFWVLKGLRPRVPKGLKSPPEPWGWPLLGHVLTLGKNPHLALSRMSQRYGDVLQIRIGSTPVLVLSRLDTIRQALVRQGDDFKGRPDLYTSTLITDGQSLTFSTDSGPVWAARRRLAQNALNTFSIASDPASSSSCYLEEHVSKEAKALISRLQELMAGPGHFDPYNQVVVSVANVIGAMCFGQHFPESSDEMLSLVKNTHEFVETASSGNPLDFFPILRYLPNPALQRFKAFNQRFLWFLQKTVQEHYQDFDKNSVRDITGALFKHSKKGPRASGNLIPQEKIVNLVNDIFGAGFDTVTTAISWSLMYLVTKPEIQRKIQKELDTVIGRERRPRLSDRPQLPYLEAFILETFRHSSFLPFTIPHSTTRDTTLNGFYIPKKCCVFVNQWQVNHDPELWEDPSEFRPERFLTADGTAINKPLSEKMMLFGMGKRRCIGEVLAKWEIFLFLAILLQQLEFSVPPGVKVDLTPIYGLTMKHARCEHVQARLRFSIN

[17] = target: Cytochrome P450 2D6 (Homo sapiens, UniProt P10635); test: Inhibition of CYP2D6 in human liver microsomes at 5 uM using dextromethorphan as substrate after 20 mins in presence of NADPH by LC-MS/MS analysis; format: ADME
Sequence of Cytochrome P450 2D6 (P10635 whole entry): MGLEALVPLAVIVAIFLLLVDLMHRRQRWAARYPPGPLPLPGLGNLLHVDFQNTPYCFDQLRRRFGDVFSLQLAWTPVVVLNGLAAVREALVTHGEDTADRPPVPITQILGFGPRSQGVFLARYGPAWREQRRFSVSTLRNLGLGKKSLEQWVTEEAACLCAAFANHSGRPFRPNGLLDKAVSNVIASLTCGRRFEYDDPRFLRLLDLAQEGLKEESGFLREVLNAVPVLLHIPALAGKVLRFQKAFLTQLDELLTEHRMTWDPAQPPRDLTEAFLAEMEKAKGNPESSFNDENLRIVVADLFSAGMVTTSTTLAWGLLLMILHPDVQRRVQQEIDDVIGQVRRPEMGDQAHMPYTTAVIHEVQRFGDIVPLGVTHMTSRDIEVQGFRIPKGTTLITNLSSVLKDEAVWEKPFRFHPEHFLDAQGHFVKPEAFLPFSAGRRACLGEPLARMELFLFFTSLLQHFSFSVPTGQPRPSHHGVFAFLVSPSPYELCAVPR

[18] = Aqueous solubility in pH 6.8 solution at 130 uM after 20 hrs by liquid chromatography method; format: physicochemical; conditions: aqueous pH 6.8 solution
[19] = target: Cytochrome P450 2C19 (Homo sapiens, UniProt P33261); test: Inhibition of CYP2C19 in human liver microsomes at 5 uM using S-mephenytoin as substrate after 20 mins in presence of NADPH by LC-MS/MS analysis; format: ADME
Sequence of Cytochrome P450 2C19 (P33261 whole entry): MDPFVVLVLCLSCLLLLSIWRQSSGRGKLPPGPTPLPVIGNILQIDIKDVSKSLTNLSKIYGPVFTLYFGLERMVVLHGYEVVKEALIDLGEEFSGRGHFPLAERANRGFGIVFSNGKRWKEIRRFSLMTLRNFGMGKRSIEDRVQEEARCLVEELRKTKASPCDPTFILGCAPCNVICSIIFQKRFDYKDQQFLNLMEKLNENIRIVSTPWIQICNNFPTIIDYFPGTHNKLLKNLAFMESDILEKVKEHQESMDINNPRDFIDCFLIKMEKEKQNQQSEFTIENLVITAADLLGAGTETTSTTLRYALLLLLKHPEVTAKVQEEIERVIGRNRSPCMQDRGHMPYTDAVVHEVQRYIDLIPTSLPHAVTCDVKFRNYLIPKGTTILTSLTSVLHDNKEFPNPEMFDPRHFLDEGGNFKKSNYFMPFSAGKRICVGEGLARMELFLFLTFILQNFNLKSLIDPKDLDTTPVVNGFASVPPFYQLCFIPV

[20] = Total clearance in Balb/c mouse at 1 mg/kg, iv or 3 mg/kg, po by LC-MS/MS analysis; format: ADME, organism-based; conditions: in vivo
[21] = Half life in Balb/c mouse at 1 mg/kg, iv or 3 mg/kg, po by LC-MS/MS analysis; format: ADME, organism-based; conditions: in vivo
[22] = target: Cytochrome P450 2C9 (Homo sapiens, UniProt P11712); test: Inhibition of CYP2C9 in human liver microsomes at 5 uM using diclofenac as substrate after 20 mins in presence of NADPH by LC-MS/MS analysis; format: ADME
Sequence of Cytochrome P450 2C9 (P11712 whole entry): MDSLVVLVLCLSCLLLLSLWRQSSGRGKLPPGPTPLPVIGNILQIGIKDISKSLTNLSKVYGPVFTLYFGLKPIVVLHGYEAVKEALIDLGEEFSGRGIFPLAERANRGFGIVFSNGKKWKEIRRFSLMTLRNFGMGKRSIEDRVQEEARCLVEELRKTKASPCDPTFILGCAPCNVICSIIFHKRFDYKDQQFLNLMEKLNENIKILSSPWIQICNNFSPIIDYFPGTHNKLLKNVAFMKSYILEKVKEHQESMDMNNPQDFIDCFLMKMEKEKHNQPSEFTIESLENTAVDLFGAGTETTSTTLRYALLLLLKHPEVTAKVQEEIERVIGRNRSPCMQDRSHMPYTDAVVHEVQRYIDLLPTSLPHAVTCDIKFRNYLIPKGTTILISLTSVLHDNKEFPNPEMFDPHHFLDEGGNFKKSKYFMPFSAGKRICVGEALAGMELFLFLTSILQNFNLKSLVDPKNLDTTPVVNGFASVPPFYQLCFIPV

[23] = AUC (0 to 24 hrs) in Balb/c mouse at 1 mg/kg, iv or 3 mg/kg, po by LC-MS/MS analysis; format: ADME, organism-based; conditions: in vivo
[24] = Oral bioavailability in Balb/c mouse at 3 mg/kg by LC-MS/MS analysis; format: ADME, organism-based; conditions: in vivo
[25] = Fraction unbound in mouse plasma at 2 uM after 6 hrs by LC-MS/MS based equilibrium dialysis method; format: ADME, cell-free
[26] = tested on: Mus musculus; test: In vivo inhibition of PI3Kdelta in Balb/c mouse assessed as reduction in trinitrophenylated aminoethylcarboxymethyl-Ficoll-induced antibody production in plasma administered orally twice daily measured on day 4 by ELISA; format: functional, organism-based

Sequence of PI3-kinase p110-delta/p85-alpha (P27986 whole entry): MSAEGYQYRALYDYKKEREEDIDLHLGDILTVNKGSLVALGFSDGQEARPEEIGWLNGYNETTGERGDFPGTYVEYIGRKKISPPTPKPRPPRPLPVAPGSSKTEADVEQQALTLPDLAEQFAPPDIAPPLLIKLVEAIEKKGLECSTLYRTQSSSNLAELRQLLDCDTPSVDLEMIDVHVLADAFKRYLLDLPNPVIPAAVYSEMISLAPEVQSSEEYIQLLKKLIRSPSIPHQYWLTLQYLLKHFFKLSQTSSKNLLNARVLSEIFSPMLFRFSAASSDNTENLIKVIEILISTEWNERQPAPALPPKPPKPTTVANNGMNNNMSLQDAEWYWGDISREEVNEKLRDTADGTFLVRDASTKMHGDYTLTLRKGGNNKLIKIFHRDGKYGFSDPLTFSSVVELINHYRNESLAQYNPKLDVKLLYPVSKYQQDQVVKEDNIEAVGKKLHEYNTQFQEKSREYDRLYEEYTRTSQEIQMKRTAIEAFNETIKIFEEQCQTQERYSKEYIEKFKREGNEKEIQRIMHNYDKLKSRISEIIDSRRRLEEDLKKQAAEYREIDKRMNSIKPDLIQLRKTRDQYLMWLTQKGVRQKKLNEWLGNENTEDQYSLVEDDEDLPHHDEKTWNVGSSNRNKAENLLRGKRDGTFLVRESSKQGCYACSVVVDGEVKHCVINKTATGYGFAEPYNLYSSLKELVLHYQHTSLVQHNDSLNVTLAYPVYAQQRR
Sequence of PI3-kinase p110-delta/p85-alpha (O00329 whole entry): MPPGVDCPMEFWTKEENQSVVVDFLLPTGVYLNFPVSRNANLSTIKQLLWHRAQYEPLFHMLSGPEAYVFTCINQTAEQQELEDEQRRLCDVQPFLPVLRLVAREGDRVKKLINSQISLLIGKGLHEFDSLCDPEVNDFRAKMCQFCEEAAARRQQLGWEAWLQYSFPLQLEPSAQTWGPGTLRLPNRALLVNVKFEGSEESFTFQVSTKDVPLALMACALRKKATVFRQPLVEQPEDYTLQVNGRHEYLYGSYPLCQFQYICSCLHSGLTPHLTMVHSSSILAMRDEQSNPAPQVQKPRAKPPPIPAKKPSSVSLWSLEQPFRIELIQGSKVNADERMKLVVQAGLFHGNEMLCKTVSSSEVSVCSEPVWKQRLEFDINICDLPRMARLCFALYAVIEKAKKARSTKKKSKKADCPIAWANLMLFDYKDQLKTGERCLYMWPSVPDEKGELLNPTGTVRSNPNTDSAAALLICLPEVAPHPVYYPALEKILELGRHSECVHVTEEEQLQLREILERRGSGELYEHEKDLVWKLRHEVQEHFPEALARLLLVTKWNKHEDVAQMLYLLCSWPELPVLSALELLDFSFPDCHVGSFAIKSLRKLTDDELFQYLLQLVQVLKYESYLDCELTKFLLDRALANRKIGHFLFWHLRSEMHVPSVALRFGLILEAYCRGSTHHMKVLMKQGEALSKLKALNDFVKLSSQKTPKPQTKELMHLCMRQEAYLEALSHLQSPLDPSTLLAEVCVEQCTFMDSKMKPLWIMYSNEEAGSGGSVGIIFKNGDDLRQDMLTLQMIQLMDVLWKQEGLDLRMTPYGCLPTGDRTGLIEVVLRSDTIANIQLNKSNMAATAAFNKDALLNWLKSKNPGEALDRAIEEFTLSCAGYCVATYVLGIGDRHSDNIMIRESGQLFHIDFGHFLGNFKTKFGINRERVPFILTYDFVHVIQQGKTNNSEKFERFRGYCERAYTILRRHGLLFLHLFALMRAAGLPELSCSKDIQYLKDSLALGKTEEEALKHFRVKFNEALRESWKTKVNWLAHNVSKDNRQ

SMILES: COc1ncc(-c2cc(OC[C@H]3CCCN(C(=O)C4CCOCC4)C3)c3cnn(C)c3n2)cc1NS(C)(=O)=O
- IC50 [1]: 30 nM
- Ratio IC50 [2]: 6.6

SMILES: COc1ncc(-c2cc(OC3CN(C(=O)C4CCOCC4)C3)c3cnn(C)c3n2)cc1NS(C)(=O)=O
- IC50 [1]: 63 nM
- Ratio IC50 [2]: 3.7

SMILES: COc1ncc(-c2cc(OC[C@@H]3CCCN(CC4CCOCC4)C3)c3cnn(C)c3n2)cc1NS(C)(=O)=O
- Ratio IC50 [3]: 890
- IC50 [1]: 0.79 nM
- CLint scaled at 0.2 µM [4]: 340 mL/min/kg
- Ratio IC50 [2]: 87
- Ratio IC50 [5]: 3200

SMILES: COc1ncc(-c2cc(O[C@@H]3CCN(Cc4c(C)nn(C)c4C)C3)c3cnn(C)c3n2)cc1NS(C)(=O)=O
- CLint scaled at 0.2 µM [4]: 620 mL/min/kg
- inhibition in vivo at 2 mg/kg [6]: 37%

SMILES: COc1ncc(-c2cc(OC[C@@H]3CCCN(C(=O)CC4CCOC4)C3)c3cnn(C)c3n2)cc1NS(C)(=O)=O (stereo partly specified)
- IC50 [1]: 4.8 nM
- Ratio IC50 [2]: 210

SMILES: COc1ncc(-c2cc(OC[C@@H]3CCCN(C(=O)C4CCN(C(C)=O)CC4)C3)c3cnn(C)c3n2)cc1NS(C)(=O)=O
- IC50 [1]: 4.6 nM
- Ratio IC50 [2]: 260

SMILES: COc1ncc(-c2cc(OC[C@@H]3CCCN(C(=O)C4CCOCC4)C3)c3cnn(C)c3n2)cc1NS(C)(=O)=O
- Ratio IC50 [3]: 1300
- IC50 [1]: 3.9 nM
- Ratio IC50 [2]: 39
- Ratio IC50 [5]: 490

SMILES: COc1ncc(-c2cc(OC[C@@H]3CCCN(Cc4c(C)nn(C)c4C)C3)c3cnn(C)c3n2)cc1NS(C)(=O)=O
- IC50 [1]: 1.4 nM
- CLint scaled at 0.2 µM [4]: > 1000 mL/min/kg
- Ratio IC50 [2]: 780

SMILES: COc1ncc(-c2cc(O[C@H]3CC[C@H](NC(=O)C4CCOCC4)CC3)c3cnn(C)c3n2)cc1NS(C)(=O)=O
- IC50 [1]: 150 nM

SMILES: COc1ncc(-c2cc(OC[C@@H]3CCCN(C(=O)C4CCN(CCC(F)(F)F)CC4)C3)c3cnn(C)c3n2)cc1NS(C)(=O)=O
- IC50 [1]: 41 nM
- Ratio IC50 [2]: 38

SMILES: COc1ncc(-c2cc(OC[C@@H]3CCCN(Cc4cn(C)nc4C)C3)c3cnn(C)c3n2)cc1NS(C)(=O)=O
- IC50 [1]: 3.2 nM
- CLint scaled at 0.2 µM [4]: > 1000 mL/min/kg
- Ratio IC50 [2]: 730

SMILES: COc1ncc(-c2cc(OC[C@@H]3CCCN(CC4(C)COC4)C3)c3cnn(C)c3n2)cc1NS(C)(=O)=O
- IC50 [1]: 1.8 nM
- CLint scaled at 0.2 µM [4]: 910 mL/min/kg
- Ratio IC50 [2]: 570

SMILES: COc1ncc(-c2cc(OC[C@@H]3CCCN(C(=O)c4cccnn4)C3)c3cnn(C)c3n2)cc1NS(C)(=O)=O
- IC50 [1]: 7.3 nM
- Ratio IC50 [2]: 35

SMILES: COc1ncc(-c2cc(O[C@@H]3CCN(C(=O)C4CCOCC4)C3)c3cnn(C)c3n2)cc1NS(C)(=O)=O
- inhibition in vivo at 1 mg/kg [7]: -2%
- Stability [8]: Stable
- inhibition in vivo at 2 mg/kg [6]: 32%

SMILES: COc1ncc(-c2cc(OC[C@@H]3CCCN(CCC4CCOCC4)C3)c3cnn(C)c3n2)cc1NS(C)(=O)=O
- Cmax [9]: 230 ng/mL
- inhibition (INH) [10]: Not Active
- inhibition (INH) [11]: Not Active
- Tmax [12]: 0.5 h
- Vd [13]: 5.64 L/kg
- inhibition in vivo at 0.5 mg/kg [14]: 56%
- inhibition in vivo at 1 mg/kg [7]: 68%
- Papp at 2 h, 50 µM [15]: 22 ×10⁻⁶ cm/s
- Ratio IC50 [3]: 660
- inhibition (INH) [16]: Not Active
- inhibition (INH) [17]: Not Active
- IC50 [1]: 1.3 nM
- solubility at 20 h, 130 µM [18]: ≥ 100 µM
- inhibition (INH) [19]: Not Active
- CLint scaled at 0.2 µM [4]: 88 mL/min/kg
- clearance [20]: 25.5 mL/min/kg
- half-life [21]: 2.63 h
- inhibition (INH) [22]: Not Active
- AUC(0-t) [23]: 1420 ng·h/mL
- bioavailability [24]: 73%
- fraction unbound at 6 h, 2 µM [25]: 0.23
- Ratio IC50 [2]: 430
- inhibition in vivo at 2 mg/kg [6]: 83%
- Ratio IC50 [5]: 3600
- inhibition [26]: Dose-dependent effect
